Like-named read-outs stand apart in the source and are kept apart here.

Our source for the IC50 and MIC values is patent publication US6048852A, “β-thiopropionyl-aminoacid derivatives and their use as β-lactamase inhibitors” (SmithKline Beecham p.l.c., priority 1996, dated 2000).

Experiment [1] addresses B. fragilis CfiA metallo-β-lactamase (Bacteroides fragilis, UniProt P25910). The experiment can be described thus: I50 screen, nitrocefin reporter substrate, CfiA metallo-β-lactamase. The format is biochemical. Conditions: 25 mM PIPES pH 7, 37° C., nitrocefin 91 μM, 5 minute preincubation, Zn2+ 100 μM; enumerated Examples; read-out: I50 values against B. fragilis CfiA metallo-β-lactamase. As to the method: The inhibitory activity of the compounds of the invention was measured in 25 mM PIPES pH 7 buffer at 10 concentrations (1000, 333, 111, 37, 12.3, 4.1, 1.4, 0.46, 0.15 and 0.05 μM) at 37° C. using nitrocefin (91 μM final concentration) as the reporter substrate. The assays were performed with a 5 minute preincubation of enzyme and inhibitor and were conducted in the presence of added zinc sulphate (Zn^2+ 100 μM, final concentration). the methodology is described in detail in the following references: Payne et al (1991), J. Antimicrob. Chemother., 28:255; Payne et al (1994), Antimicrob. Agents and Chemother., 38:767.

Experiment [2] has as its system Bacteroides fragis 262 strain, which produces CfiA metallo-β-lactamase. Nature of the experiment: Antibacterial activity (MIC) in combination with meropenem. The format is cell-based, Bacteroides fragilis. An excerpt:
Antibacterial activity of compounds of the invention in combination with the carbapenem antibiotic, meropenem, against the Bacteroides fragis 262 strain, which produces CfiA metallo-β-lactamase:
[MIC=minimum inhibitory concentration (μg/ml)]

[3] abbreviates: read-out: MIC (μg/ml) of compound alone.

Chain of B. fragilis CfiA metallo-β-lactamase (P25910 19-249): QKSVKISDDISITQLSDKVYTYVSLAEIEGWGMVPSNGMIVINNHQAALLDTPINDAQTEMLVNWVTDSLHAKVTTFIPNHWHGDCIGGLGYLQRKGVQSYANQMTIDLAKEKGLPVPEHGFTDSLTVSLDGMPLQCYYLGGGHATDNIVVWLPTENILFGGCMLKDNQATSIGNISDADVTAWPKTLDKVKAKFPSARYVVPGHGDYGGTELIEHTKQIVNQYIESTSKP

Consider `O=C(O)c1ccc(CCC(CS)C(=O)N[C@@H](C(=O)O)c2ccccc2)cc1` (single isomer, unassigned) [46 (Isomer A), N-[2'-(Mercaptomethyl)-4'-(4"-hydroxycarbonyl)phenylbutanoyl]-D-phenylglycine], for which the IC50 in experiment [1] was less than 1 µM. In the case of `O=C(N[C@@H](C(=O)O)c1ccccc1)C(CS)CCc1ccc2nc(C(F)(F)F)ccc2c1` (single isomer, unassigned) [47 (Isomer B), N-[2'-(Mercaptomethyl)-4'-(2"-trifluoromethylquinolin-6"-yl)butanoyl]-D-phenylglycine], the IC50 in experiment [1] was less than 1 µM.

Take `CC(S)C(Cc1ccccc1)C(=O)N[C@@H](C(=O)O)c1ccccc1` (single isomer, unassigned) [Example 50 (Isomer B), N-[2'-Benzyl-3'-mercaptobutanoyl]-D-phenylglycine]: the IC50 in experiment [1] was less than 1 µM. Same read-out and setting: for `CC(S)C(Cc1ccccc1)C(=O)N[C@@H](C(=O)O)c1ccccc1` (single isomer, unassigned) [Example 50 (Isomer C), N-[2'-Benzyl-3'-mercaptobutanoyl]-D-phenylglycine] the value was less than 1 µM. On to `CC(S)C(Cc1ccccc1)C(=O)N[C@@H](C(=O)O)c1ccccc1` (single isomer, unassigned) [Example 50 (all isomers), N-[2'-Benzyl-3'-mercaptobutanoyl]-D-phenylglycine], for which the MIC in experiment [2] (setting [3]) was greater than 128 µg/mL.

For the compound `O=C(N[C@@H](Cc1c[nH]c2ccccc12)C(=O)O)C(CS)Cc1ccccc1` (stereo partly drawn) [5d), N-[2'-Benzyl-3'-mercaptopropionyl]tryptophan], the IC50 in experiment [1] was less than 1 µM. Still for that read-out and setting: in the case of `O=C(N[C@H](Cc1c[nH]c2ccccc12)C(=O)O)C(CS)Cc1ccccc1` (stereo partly drawn) [5e), N-[2'-Benzyl-3'-mercaptopropionyl]-D-tryptophan] it was less than 1 µM; in that of `O=C(N[C@@H](C(=O)O)c1ccccc1)[C@@H](CS)Cc1ccccc1` [9i), [2'S]-N-[2'-Benzyl-3'-mercaptopropionyl]-D-phenylglycine], less than 1 µM. For the compound `O=C(N[C@@H](C(=O)O)c1ccccc1)[C@@H](CS)CCc1ccccc1` [37f), N-[(S)-2'-Mercaptomethyl-4'-phenylbutanoyl]-D-phenylglycine], the IC50 in experiment [1] is less than 1 µM. The MIC in experiment [2] (setting [3]) was greater than 128 µg/mL. Consider `O=C(N[C@@H](C(=O)O)c1ccccc1)[C@@H](CS)CCCc1ccccc1` [38f), N-[(S)-2'-Mercaptomethyl-5'-phenylpentanoyl]-D-phenylglycine], for which the IC50 in experiment [1] is less than 1 µM. Moreover, in experiment [2] (setting [3]), the MIC was greater than 128 µg/mL.

`O=C(N[C@@H](C(=O)O)c1ccccc1)[C@@H](CS)CCCCCc1ccccc1` [40f), N-[(S)-2'-Mercaptomethyl-7'-phenylheptanoyl]-D-phenylglycine]: in experiment [1], the IC50 is less than 1 µM.

Regarding `O=C(NC(C(=O)O)c1ccccc1)C(CS)Cc1ccccc1` (stereo not drawn) [Example 9e), N-[2'-Benzyl-3'-mercaptopropionyl]phenylglycine], the IC50 in experiment [1] was less than 1 µM. `O=C(N[C@@H](C(=O)O)c1ccccc1)C(CS)Cc1ccccc1` (stereo partly drawn) [Example 9k), N-[2'-Benzyl-3'-mercaptopropionyl]-D-phenylglycine]: the IC50 in experiment [1] was less than 1 µM. Moreover, the MIC in experiment [2] (setting [3]) is greater than 128 µg/mL. For `O=C(N[C@@H](C(=O)O)c1ccc(O)cc1)C(CS)Cc1ccccc1` (stereo partly drawn) [Example 12, N-[2'-Benzyl-3'-mercaptopropionyl]-4-hydroxy-D-phenylglycine], in that order: less than 1 µM and greater than 128 µg/mL. For `COc1ccc(C(NC(=O)C(CS)Cc2ccccc2)C(=O)O)cc1` (stereo not drawn) [Example 13, N-[2'-Benzyl-3'-mercaptopropionyl]4-methoxyphenylglycine], in that order: less than 1 µM and greater than 128 µg/mL. For `O=C(NC(C(=O)O)c1ccc(O)c([N+](=O)[O-])c1)C(CS)Cc1ccccc1` (stereo not drawn) [Example 14, N-[2'-Benzyl-3'-mercaptopropionyl]-4-hydroxy-3-nitrophenylglycine], in that order: less than 1 µM and greater than 128 µg/mL. With `O=C(N[C@@H](C(=O)O)c1ccc(O)c(O)c1)C(CS)Cc1ccccc1` (stereo partly drawn) [Example 15, N-[2'-Benzyl-3'-mercaptopropionyl]-3,4-dihydroxy-D-phenylglycine], the IC50 in experiment [1] was less than 1 µM. Still for that read-out and setting: in the case of `O=C(N[C@@H](C(=O)O)c1ccc(F)cc1)C(CS)Cc1ccccc1` (stereo partly drawn) [Example 16, N-[2'-Benzyl-3'-mercaptopropionyl]-4-fluoro-D-phenylglycine] it was less than 1 µM; in that of `O=C(NC(C(=O)O)c1cccc(F)c1)C(CS)Cc1ccccc1` (stereo not drawn) [Example 17, N-[2'-Benzyl-3'-mercaptopropionyl]-3-fluorophenylglycine], less than 1 µM; in that of `O=C(N[C@@H](C(=O)O)c1cccc([N+](=O)[O-])c1)C(CS)Cc1ccccc1` (stereo partly drawn) [Example 18, N-[2'-Benzyl-3'-mercaptopropionyl]-3-nitro-D-phenylglycine], less than 1 µM.

On to `O=C(NC(C(=O)O)c1ccccc1F)C(CS)Cc1ccccc1` (stereo not drawn) [Example 19, N-[2'-Benzyl-3'-mercaptopropionyl]-2-fluorophenylglycine], for which the IC50 in experiment [1] is less than 1 µM. Also, the MIC in experiment [2] (setting [3]) was greater than 128 µg/mL.

Turning to `O=C(NC(C(=O)O)c1cccs1)C(CS)Cc1ccccc1` (stereo not drawn) [Example 20, N-[2'-Benzyl-3'-mercaptopropionyl]-2-thienylglycine], the IC50 in experiment [1] was less than 1 µM. As to `CC(CS)C(=O)N[C@@H](C(=O)O)c1ccccc1` (stereo partly drawn) [Example 22, N-[2'-Methyl-3'-mercaptopropionyl]-D-phenylglycine], in experiment [1], the IC50 is less than 1 µM. The MIC in experiment [2] (setting [3]) was greater than 128 µg/mL.

On to `CC(C)CC(CS)C(=O)N[C@@H](C(=O)O)c1ccccc1` (stereo partly drawn) [Example 23, N-(4-Methyl-2-mercaptomethylpentanoyl]-D-phenylglycine], for which, in experiment [1], the IC50 was less than 1 µM. For the same compound, the MIC in experiment [2] (setting [3]) was greater than 128 µg/mL. For `Cc1ccc(C(NC(=O)C(CS)Cc2ccccc2)C(=O)O)cc1` (stereo not drawn) [Example 24, N-[2'-Benzyl-3'-mercaptopropionyl]-4-methylphenylglycine], in that order: less than 1 µM and greater than 128 µg/mL.

For `Cn1cc(C(NC(=O)C(CS)Cc2ccccc2)C(=O)O)cn1` (stereo not drawn) [Example 25, N-[2'-Benzyl-3'-mercaptopropionyl]4-[1-methylisoiinidazolyl]glycine], the IC50 in experiment [1] was less than 1 µM. With `CC(C)CC(C(=O)N[C@@H](C(=O)O)c1ccccc1)C(C)S` (stereo partly drawn) [Example 27, N-[2'-Isobutyl-3'-mercaptobutanoyl]-D phenylglycine], in experiment [1], the IC50 was less than 1 µM. In experiment [2] (setting [3]), the MIC is greater than 128 µg/mL. For `O=C(NC(C(=O)O)c1ccco1)C(CS)Cc1ccccc1` (stereo not drawn) [Example 30, N-[2'-Benzyl-3'-mercaptopropionyl]-2-(2"-furanyl)glycine], the IC50 in experiment [1] was less than 1 µM. `O=C(NC(C(=O)O)c1cc2ccccc2s1)C(CS)Cc1ccccc1` (stereo not drawn) [Example 31, N-[2'-Benzyl-3'-mercaptopropionyl]-2-(2"-benzothienyl)glycine]: the IC50 in experiment [1] was less than 1 µM. The MIC in experiment [2] (setting [3]) was greater than 128 µg/mL. For `O=C(NC(C(=O)O)c1ccoc1)C(CS)Cc1ccccc1` (stereo not drawn) [Example 32, N-[2'-Benzyl-3'-mercaptopropionyl]-2-(3"-furanyl)glycine], in that order: less than 1 µM and greater than 128 µg/mL. Regarding `O=C(N[C@@H](C(=O)O)c1ccccc1)C(CS)CCCCc1ccccc1` (stereo partly drawn) [Example 39, N-[2'-Mercaptomethyl-6'-phenylhexanoyl]-D-phenylglycine], in experiment [1], the IC50 was less than 1 µM. The same measure, in the same setting: for `O=C(N[C@@H](C(=O)O)c1ccccc1)C(CS)C1CCc2ccccc21` (stereo partly drawn) [Example 41, N-[2'-(Indan-1-yl)-3'-mercaptopropanoyl]-D-phenylglycine] the value was less than 1 µM; for `O=C(N[C@@H](C(=O)O)c1ccccc1)C(CS)CCOc1ccccc1` (stereo partly drawn) [Example 42, N-[2'-Mercaptomethyl-4'-phenoxybutanoyl]-D-phenylglycine], less than 1 µM. On to `O=C(NC(C(=O)O)c1ccsc1)C(CS)Cc1ccccc1` (stereo not drawn) [Example 43, N-[2'-Benzyl-3'-mercaptopropionyl]-2-(3"-thienyl)glycine], for which, in experiment [1], the IC50 is less than 1 µM. For the same compound, in experiment [2] (setting [3]), the MIC is greater than 128 µg/mL.

As to `CC(S)C(CCc1ccccc1)C(=O)N[C@@H](C(=O)O)c1ccccc1` (stereo partly drawn) [Example 44, N-[2'-(1"-Mercaptoethyl)-4'-phenylbutanoyl]-D-phenylglycine], in experiment [1], the IC50 is less than 1 µM. Take `CCC(S)C(Cc1ccccc1)C(=O)N[C@@H](C(=O)O)c1ccccc1` (stereo partly drawn) [Example 49, N-[2-Benzyl-3-mercaptopentanoyl]-D-phenylglycine]: the MIC in experiment [2] (setting [3]) is greater than 128 µg/mL. Turning to `O=C(N[C@@H](C(=O)O)c1ccccc1)C(Cc1ccccc1)C1(S)CC1` (stereo partly drawn) [Example 52, N-[2'-Benzyl-2'-(1"-mercaptocyclopropyl)acetyl]-D-phenylglycine], in experiment [2] (setting [3]), the MIC was greater than 128 µg/mL.

As to `O=C(N[C@@H](C(=O)O)c1ccccc1)C(CS)CCc1ccc(OC(F)F)cc1` (stereo partly drawn) [Example 55, N-[2'-Mercaptomethyl-4'-(4"-difluoromethoxphenyl)butanoyl)-D-phenylglycine], the IC50 in experiment [1] was less than 1 µM. Moreover, the MIC in experiment [2] (setting [3]) was greater than 128 µg/mL. Consider `C[C@@H](O)[C@H]1C(=O)N2C(C(=O)O)=C(S[C@@H]3CN[C@H](C(=O)N(C)C)C3)[C@H](C)[C@H]12` [meropenem, reference compound], for which the MIC in experiment [2] (read-out: MIC (μg/ml) of meropenem alone) was greater than 128 µg/mL.
